Values joined by “and” are separate entries in the source; they are usually repeats but may differ in a detail not shown here. Identical values can stand only once. Like-named read-outs stand apart in the source and are kept apart here. One block for each compound: values may come before it.
Tests used:
[1] = Caco-2 cell permeation study; format: in vitro ADME; settings: human; for Papp A→B at 2 h, 10 μM / Papp B→A at 2 h, 10 μM: Caco-2, 10 μM; for Papp A→B at 2 h, 10 μM: apical pH 6.5, 2 h; for Papp B→A at 2 h, 10 μM: basolateral pH 7.4, 2 h
Caco-2 monolayers = assay: Caco-2 cell permeation study; format: in vitro ADME; settings: for Papp A to B: apical pH 6.5, 2 h
in vitro = settings: rat, pH 7.4
FLT3-ITD = molecular target: T1, FLT3-ITD (Homo sapiens, UniProt P36888, cells depend on it, form not given); assay: BaF3 stable clone growth (WST-1), FLT3-ITD; settings: read-out: BaF3 Stables IC50 ± SEE, FLT3-ITD
T1 sequence (P36888 with tags, fused parts or gaps INS600HVDFREYEYD): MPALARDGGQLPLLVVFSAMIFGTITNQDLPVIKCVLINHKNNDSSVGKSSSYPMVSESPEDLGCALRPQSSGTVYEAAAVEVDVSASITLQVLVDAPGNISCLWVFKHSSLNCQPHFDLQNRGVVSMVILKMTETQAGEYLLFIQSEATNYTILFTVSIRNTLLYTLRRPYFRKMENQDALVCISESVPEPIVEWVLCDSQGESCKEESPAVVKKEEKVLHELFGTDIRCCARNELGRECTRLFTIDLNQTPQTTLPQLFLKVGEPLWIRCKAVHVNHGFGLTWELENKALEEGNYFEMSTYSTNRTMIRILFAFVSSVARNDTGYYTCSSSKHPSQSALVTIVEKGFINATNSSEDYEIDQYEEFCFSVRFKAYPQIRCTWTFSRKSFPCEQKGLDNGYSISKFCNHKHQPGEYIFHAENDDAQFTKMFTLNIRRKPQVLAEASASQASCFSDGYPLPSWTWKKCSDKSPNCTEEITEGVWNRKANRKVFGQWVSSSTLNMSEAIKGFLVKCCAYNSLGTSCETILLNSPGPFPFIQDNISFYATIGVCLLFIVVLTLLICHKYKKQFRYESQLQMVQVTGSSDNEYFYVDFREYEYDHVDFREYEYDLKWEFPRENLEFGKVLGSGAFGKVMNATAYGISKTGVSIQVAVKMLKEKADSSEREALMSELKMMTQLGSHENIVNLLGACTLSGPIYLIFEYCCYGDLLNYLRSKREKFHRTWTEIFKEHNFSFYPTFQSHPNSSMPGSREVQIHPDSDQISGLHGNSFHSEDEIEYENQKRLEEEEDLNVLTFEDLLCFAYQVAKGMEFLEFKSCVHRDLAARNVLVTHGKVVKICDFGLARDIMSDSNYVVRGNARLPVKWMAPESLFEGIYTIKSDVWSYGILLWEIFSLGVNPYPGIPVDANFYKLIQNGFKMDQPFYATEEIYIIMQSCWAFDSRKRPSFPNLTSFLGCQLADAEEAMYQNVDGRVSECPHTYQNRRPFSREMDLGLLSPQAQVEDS

[2] = Guinea pig pharmacokinetics; format: in vivo; settings: 10 mg/kg PO
[3] = molecular target: hERG potassium channel current expressed in HEK293 cells (Homo sapiens, UniProt Q12809); assay: hERG automatic patch clamp (PatchXpress 7000A)
Dog pharmacokinetics = format: in vivo, beagle dog; settings: 5 mg/kg PO
U937 lymphoma cells = assay: 3 day cell viability (WST-1), U937; format: cell-based; settings: 3 days
[4] = Rat pharmacokinetics / bioavailability; format: in vivo; settings: for AUC(0-t): male, Sprague-Dawley, plasma, read-out: AUC0-1440 (converted)
Mouse pharmacokinetics = format: in vivo; settings: 10 mg/kg SC
TrkA = molecular target: T2, TrkA (Homo sapiens, UniProt P04629); assay: In vitro kinase activity assay (LANCE TR-FRET), TrkA; format: biochemical
T2 construct: purchased Invitrogen

ALK = molecular target: T3, ALK (Homo sapiens, UniProt Q9UM73); assay: In vitro kinase activity assay (LANCE TR-FRET), ALK; format: biochemical
T3 construct: purchased Invitrogen

NB-1 neuroblastoma cells = assay: 3 day cell viability (WST-1), NB-1; format: cell-based; settings: 72 h, 3 days
[5] = Phase I microsome metabolic stability, rat; settings: pH 7.4
EML4-ALK R1275Q = EML4-ALK R1275Q (Homo sapiens, UniProt Q9UM73, R1275Q); assay: BaF3 stable clone growth (WST-1), EML4-ALK R1275Q; settings: read-out: BaF3 Stables IC50 ± SEE, R1275Q; EML4-ALK construct
EML4-ALK C1156Y = EML4-ALK C1156Y (Homo sapiens, UniProt Q9UM73, C1156Y); assay: BaF3 stable clone growth (WST-1), EML4-ALK C1156Y; settings: BaF3 stables
[6] = Phase I microsome metabolic stability, human; settings: pH 7.4
cMET = molecular target: T4, cMET (Homo sapiens, UniProt P08581); assay: In vitro kinase activity assay (LANCE TR-FRET), cMET; format: biochemical
T4 construct: purchased Invitrogen

K299 lymphoma cells = assay: 3 day cell viability (WST-1), K299; format: cell-based; settings: Homo sapiens, 72 h, 3 days
[7] = Phase I microsome metabolic stability, mouse; format: in vitro ADME; settings: 1.0 mg/ml microsomes
NPM-ALK C1156Y = NPM-ALK C1156Y (Homo sapiens, UniProt Q9UM73, C1156Y); assay: BaF3 stable clone growth (WST-1), NPM-ALK C1156Y; settings: BaF3 stables
NPM-ALK R1275Q = NPM-ALK R1275Q (Homo sapiens, UniProt Q9UM73, R1275Q); assay: BaF3 stable clone growth (WST-1), NPM-ALK R1275Q; settings: read-out: BaF3 Stables IC50 ± SEE, R1275Q; NPM-ALK construct
[8] = positive control run with the compound of that line, 10 μM

Sequence of EML4-ALK C1156Y (Q9UM73 1060-1620 C1156Y limits assumed): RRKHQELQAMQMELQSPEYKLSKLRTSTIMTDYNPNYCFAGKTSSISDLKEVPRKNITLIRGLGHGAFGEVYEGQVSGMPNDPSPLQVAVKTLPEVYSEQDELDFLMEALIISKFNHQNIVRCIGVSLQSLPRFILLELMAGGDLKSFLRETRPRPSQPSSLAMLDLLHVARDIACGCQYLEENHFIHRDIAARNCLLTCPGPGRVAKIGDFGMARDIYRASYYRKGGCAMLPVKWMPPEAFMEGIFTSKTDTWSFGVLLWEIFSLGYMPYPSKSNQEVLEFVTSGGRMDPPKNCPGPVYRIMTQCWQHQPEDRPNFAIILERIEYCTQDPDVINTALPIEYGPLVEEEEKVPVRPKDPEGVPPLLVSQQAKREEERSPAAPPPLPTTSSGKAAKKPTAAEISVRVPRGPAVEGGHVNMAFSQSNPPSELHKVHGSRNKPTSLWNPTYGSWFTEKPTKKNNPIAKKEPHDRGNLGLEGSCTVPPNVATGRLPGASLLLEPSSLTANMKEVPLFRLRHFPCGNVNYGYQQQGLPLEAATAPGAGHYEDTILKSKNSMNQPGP
Sequence of hERG potassium channel current expressed in HEK293 cells (Q12809 whole entry): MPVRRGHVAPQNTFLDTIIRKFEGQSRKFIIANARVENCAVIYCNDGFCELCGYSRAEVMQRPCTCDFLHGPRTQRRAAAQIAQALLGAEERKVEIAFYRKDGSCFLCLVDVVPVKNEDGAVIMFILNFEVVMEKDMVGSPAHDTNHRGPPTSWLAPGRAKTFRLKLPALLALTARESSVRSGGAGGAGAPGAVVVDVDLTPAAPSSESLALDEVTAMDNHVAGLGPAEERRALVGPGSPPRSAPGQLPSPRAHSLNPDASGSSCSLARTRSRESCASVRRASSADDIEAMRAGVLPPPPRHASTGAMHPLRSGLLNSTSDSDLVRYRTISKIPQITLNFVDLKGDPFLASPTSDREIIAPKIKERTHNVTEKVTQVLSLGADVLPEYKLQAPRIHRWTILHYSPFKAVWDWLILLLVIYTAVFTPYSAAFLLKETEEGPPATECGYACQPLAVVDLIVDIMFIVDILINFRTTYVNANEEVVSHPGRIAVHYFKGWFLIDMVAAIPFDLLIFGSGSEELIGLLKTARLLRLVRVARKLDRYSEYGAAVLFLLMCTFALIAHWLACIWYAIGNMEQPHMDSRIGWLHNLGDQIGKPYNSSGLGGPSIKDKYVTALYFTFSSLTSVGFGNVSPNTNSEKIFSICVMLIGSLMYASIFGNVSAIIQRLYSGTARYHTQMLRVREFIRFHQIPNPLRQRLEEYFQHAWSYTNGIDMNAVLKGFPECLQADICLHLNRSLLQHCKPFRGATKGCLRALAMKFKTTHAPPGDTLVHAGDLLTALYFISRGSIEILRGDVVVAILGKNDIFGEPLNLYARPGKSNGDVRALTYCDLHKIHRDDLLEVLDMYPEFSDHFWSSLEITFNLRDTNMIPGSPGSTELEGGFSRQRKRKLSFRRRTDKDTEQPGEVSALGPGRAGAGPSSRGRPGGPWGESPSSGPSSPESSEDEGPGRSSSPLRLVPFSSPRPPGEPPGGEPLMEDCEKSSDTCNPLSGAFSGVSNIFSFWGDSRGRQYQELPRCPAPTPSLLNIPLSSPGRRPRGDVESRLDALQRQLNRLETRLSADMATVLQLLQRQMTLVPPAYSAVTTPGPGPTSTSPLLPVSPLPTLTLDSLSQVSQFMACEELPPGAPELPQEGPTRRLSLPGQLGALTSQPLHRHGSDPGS
T2 sequence (P04629 33-796): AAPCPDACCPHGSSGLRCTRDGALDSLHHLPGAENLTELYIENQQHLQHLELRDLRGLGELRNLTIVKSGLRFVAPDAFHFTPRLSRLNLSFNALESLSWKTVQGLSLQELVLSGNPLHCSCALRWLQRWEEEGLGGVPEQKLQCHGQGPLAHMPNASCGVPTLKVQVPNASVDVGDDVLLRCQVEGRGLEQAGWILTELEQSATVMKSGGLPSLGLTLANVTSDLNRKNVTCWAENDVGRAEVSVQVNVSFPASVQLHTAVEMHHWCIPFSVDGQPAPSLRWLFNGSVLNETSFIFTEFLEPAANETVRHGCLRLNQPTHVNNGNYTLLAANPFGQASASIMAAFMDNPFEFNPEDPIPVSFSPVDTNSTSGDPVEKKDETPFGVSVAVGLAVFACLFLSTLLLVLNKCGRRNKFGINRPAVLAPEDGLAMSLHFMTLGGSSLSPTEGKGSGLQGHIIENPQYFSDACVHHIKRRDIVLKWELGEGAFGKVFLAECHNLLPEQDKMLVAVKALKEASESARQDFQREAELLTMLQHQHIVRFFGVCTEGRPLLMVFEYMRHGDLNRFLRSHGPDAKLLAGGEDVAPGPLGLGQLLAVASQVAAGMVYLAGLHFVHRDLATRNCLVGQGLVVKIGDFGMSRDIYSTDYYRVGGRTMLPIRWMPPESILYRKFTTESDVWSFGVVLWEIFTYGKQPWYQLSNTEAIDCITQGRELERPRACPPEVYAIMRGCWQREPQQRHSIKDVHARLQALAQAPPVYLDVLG
Sequence of NPM-ALK C1156Y (Q9UM73 1060-1620 C1156Y limits assumed): as the sequence (Q9UM73 1060-1620 C1156Y limits assumed) above
T3 sequence (Q9UM73 19-1620): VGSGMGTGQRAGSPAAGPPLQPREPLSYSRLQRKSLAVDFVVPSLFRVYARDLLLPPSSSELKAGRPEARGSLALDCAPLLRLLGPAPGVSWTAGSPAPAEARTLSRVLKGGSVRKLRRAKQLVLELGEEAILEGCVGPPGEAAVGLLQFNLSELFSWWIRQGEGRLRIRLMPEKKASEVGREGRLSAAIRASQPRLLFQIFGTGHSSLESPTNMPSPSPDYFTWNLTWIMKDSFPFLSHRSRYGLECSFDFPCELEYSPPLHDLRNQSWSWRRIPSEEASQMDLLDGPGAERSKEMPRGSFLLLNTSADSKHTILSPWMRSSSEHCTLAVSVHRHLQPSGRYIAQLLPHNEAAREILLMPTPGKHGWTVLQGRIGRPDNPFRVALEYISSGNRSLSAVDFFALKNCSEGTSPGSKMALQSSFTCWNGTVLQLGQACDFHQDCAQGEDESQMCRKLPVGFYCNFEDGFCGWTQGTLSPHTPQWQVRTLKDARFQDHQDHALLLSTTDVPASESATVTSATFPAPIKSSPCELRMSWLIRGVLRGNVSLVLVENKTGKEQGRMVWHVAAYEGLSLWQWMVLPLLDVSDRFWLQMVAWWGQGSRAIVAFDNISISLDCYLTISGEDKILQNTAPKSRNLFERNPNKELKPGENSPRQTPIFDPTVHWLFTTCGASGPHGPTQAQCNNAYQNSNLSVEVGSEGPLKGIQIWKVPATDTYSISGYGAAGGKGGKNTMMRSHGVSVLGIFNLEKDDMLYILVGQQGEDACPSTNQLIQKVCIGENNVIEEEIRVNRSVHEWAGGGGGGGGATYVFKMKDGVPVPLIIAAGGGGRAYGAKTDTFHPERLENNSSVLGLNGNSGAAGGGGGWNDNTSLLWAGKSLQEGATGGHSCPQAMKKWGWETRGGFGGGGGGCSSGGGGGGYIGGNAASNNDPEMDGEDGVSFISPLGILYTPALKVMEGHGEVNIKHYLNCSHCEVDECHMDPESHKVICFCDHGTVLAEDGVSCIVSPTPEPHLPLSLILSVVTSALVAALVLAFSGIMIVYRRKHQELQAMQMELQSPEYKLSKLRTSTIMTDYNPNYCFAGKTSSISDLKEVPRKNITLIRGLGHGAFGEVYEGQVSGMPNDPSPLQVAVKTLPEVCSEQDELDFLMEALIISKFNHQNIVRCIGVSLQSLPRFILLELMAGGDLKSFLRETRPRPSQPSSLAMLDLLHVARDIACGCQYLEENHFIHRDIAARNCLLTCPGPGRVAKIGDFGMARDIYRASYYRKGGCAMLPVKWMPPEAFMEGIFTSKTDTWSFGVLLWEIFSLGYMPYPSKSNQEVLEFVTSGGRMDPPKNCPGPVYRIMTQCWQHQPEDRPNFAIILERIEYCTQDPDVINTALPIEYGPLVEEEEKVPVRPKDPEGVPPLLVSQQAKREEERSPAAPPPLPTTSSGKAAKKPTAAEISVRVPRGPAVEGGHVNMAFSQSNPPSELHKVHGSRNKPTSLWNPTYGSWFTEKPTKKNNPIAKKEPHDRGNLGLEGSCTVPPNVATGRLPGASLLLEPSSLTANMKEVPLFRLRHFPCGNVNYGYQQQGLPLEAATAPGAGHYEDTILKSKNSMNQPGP
Sequence of NPM-ALK R1275Q (Q9UM73 1060-1620 R1275Q limits assumed): as the sequence (Q9UM73 1060-1620 C1156Y limits assumed) above, with Y97C, R216Q counted along it
Sequence of EML4-ALK R1275Q (Q9UM73 1060-1620 R1275Q limits assumed): as the sequence (Q9UM73 1060-1620 C1156Y limits assumed) above, with Y97C, R216Q counted along it

Compound: CC(C)NCC(O)COc1cccc2ccccc12 (centres unmarked) [Propranolol, reference compound]
- recovery at 2 h, 10 μM ([1]; Caco-2, Pos Ctrl: Propranolol Recovery, positive control run with the compound of that line, 10 μM): 44%
- Papp at 2 h, 10 μM ([1]; Caco-2, positive control run with the compound of that line, 10 μM): 14 ×10⁻⁶ cm/s
- Pos Ctrl (Papp): Propranolol Papp (Caco-2 monolayers; [8]): 13.7 and 14.3 and 11.8
- Pos Ctrl: Propranolol Recovery (Caco-2 monolayers; [8]): 63% and 26%

Compound: (S)-6-(2-(Dimethylamino)ethyl)-2-(2-oxo-4-((1-(2,3,5,6-tetrafluorophenyl)propan-2-yl)amino)-1,2-dihydropyridin-3-yl)-6,7-dihydroimidazo[4,5-f]isoindol-5(3H)-one [Compound 1]
- GI50 (FLT3-ITD): > 3000 nM
- F [2]: 1%
- IC50 ([3]; read-out: hERG inhib. IC50, HEK293, hERG tail current): 6.25 µM
- Compound 1 (parameter cell as printed) (Dog pharmacokinetics): 17.2 µg·min/mL
- F (Dog pharmacokinetics): 12%
- IC50 (U937 lymphoma cells): 1600 nM
- AUC0-1440 ([4]; 10 mg/kg I.V.): 329 µg·min/mL
- CL ([4]; 10 mg/kg I.V.): 25.5 mL/min/kg
- MRT ([4]; 10 mg/kg I.V.): 1362 min
- T1/2 ([4]; 10 mg/kg I.V.): 1323 min
- Vss ([4]; 10 mg/kg I.V.): 23.9 L/kg
- AUC0-1440 ([4]; 10 mg/kg P.O.): 0.943 µg·min/mL
- Cmax ([4]; 10 mg/kg P.O.): 2.21 ng/mL
- F ([4]; 10 mg/kg P.O.): 0.287%
- Tmax ([4]; 10 mg/kg P.O.): 113 min
- F (Mouse pharmacokinetics): 30%

Compound: C[C@@H](Cc1c(F)c(F)cc(F)c1F)Nc1cc[nH]c(=O)c1-c1nc2cc3c(cc2[nH]1)C(=O)N(c1cccnc1)C3O (stereo partly drawn) [Compound 13, 7-Hydroxy-2-(2-oxo-4-(((S)-1-(2,3,5,6-tetrafluorophenyl)propan-2-yl)amino)-1,2-dihydropyridin-3-yl)-6-(pyridin-3-yl)-6,7-dihydroimidazo[4,5-f]isoindol-5(1H)-one]
- IC50 (TrkA): 6.36 nM
- IC50 (ALK): 15.2 nM

Compound: C[C@@H](Cc1c(F)c(F)cc(F)c1F)Nc1cc[nH]c(=O)c1-c1nc2cc3c(cc2[nH]1)CN(C1CCN(C)CC1)C3=O [Compound 4, (S)-6-(1-Methylpiperidin-4-yl)-2-(2-oxo-4-(1-(2,3,5,6-tetrafluorophenyl)propan-2-ylamino)-1,2-dihydropyridin-3-yl)-6,7-dihydroimidazo[4,5-f]isoindol-5(3H)-one]
- IC50 (NB-1 neuroblastoma cells): 257 nM
- half-life at 0.5 μM [5]: > 120 min
- microsomal CLint at 0.5 μM [5]: < 5.8 µL/min/mg
- IC50 (EML4-ALK R1275Q): 2885 ± 20 nM
- Papp A→B at 2 h, 10 μM [1]: < 0.2 ×10⁻⁶ cm/s
- Papp B→A at 2 h, 10 μM [1]: 20 ×10⁻⁶ cm/s
- reduced potency, C1156Y compared to EML4-ALK parent construct (EML4-ALK C1156Y): 2.0 fold
- IC50 [3]: 2.72 µM
- half-life at 0.5 μM [6]: > 120 min
- microsomal CLint at 0.5 μM [6]: < 5.8 µL/min/mg

Compound: C[C@@H](Cc1c(F)c(F)cc(F)c1F)Nc1cc[nH]c(=O)c1-c1nc2cc3c(cc2[nH]1)C(=O)N(c1ccc(F)nc1)C3=O [Compound 15, (S)-6-(6-Fluoropyridin-3-yl)-2-(2-oxo-4-((1-(2,3,5,6-tetrafluorophenyl)propan-2-yl)amino)-1,2-dihydropyridin-3-yl)imidazo[4,5-f]isoindole-5,7(1H,6H)-dione]
- IC50 (cMET): > 10 µM
- Papp A→B at 2 h, 10 μM [1]: < 0.2 ×10⁻⁶ cm/s
- Papp B→A at 2 h, 10 μM [1]: < 0.2 ×10⁻⁶ cm/s
- IC50 (K299 lymphoma cells): > 10 µM

Compound: 2-(4-(1-(5-Fluoro-2-methylphenyl)propan-2-ylamino)-2-oxo-1,2-dihydropyridin-3-yl)-6-(2-(dimethylamino)ethyl)-6,7-dihydroimidazo[4,5-f]isoindole-5(1H)-one [Compound 45]
- GI50 (FLT3-ITD): > 1000 nM
- reduced potency, C1156Y compared to NPM-ALK parent construct (NPM-ALK C1156Y): 1.6 fold
- reduced potency, C1156Y compared to EML4-ALK parent construct (EML4-ALK C1156Y): 1.3 fold
- IC50 (NPM-ALK R1275Q): 81 ± 4.2 nM

Now from value to compound:

- Papp A→B at 2 h, 10 μM [1]: > 0.2 ×10⁻⁶ cm/s
- microsomal CLint at 0.5 μM (in vitro): < 5 µL/min/mg
Compound: C[C@@H](Cc1cc(F)ccc1F)Nc1cc[nH]c(=O)c1-c1nc2cc3c(cc2[nH]1)C(=O)N(C)C3=O (stereo in doubt) [Compound 32, 2-(4-(1-(2,5-Difluorophenyl)propan-2-ylamino)-2-oxo-1,2-dihydropyridin-3-yl)-6-methylimidazo[4,5-f]isoindole-5,7(1H,6H)-dione]

- half-life at 0.5 μM (in vitro): 8.88 min
- F ([4]; 10 mg/kg P.O.): 0.402%
- AUC(0-t) ([4]; iv, 10 mg/kg I.V.): 8850 ng·h/mL
- AUC(0-t) ([4]; po, 10 mg/kg P.O.): 35.5 ng·h/mL
Compound: CC(Cc1cc(F)ccc1F)Nc1cc[nH]c(=O)c1-c1nc2cc3c(cc2[nH]1)CNC3=O (centres unmarked) [Compound 53]

- Mouse LM-P1 Half-life ([7]; Phase I only, 0.5 μM): 54.06 min
- half-life at 0.5 μM ([7]; mouse, liver microsomes, pH 7.4, Phase I only, read-out: Mouse LM-P1 Half-life): 12.8 min
- Papp A to B (Caco-2 monolayers; Caco-2, 10 μM): 1.7 10−6 cm/sec
- Papp B to A (Caco-2 monolayers; Caco-2, 10 μM, basolateral pH 7.4, 2 h): 1.4 10−6 cm/sec
- Efflux Ratio (Caco-2 monolayers; Caco-2, B to A / A to B): 0.5
Compound: CC(Cc1cc(F)ccc1F)Nc1cc[nH]c(=O)c1-c1nc2cc3c(cc2[nH]1)CN(C)C3=O (centres unmarked) [Compound 33, 2-(4-(1-(2,5-Difluorophenyl)propan-2-ylamino)-2-oxo-1,2-dihydropyridin-3-yl)-6-methyl-6,7-dihydroimidazo[4,5-f]isoindol-5(1H)-one]

- Papp A→B at 2 h, 10 μM [1]: < 0.2 ×10⁻⁶ cm/s
- Papp A to B (Caco-2 monolayers; Caco-2, 10 μM): >0.2 10−6 cm/sec
Compound: CC(Cc1cc(F)ccc1F)Nc1cc[nH]c(=O)c1-c1nc2cc3c(cc2[nH]1)C(=O)N(CC(O)CO)C3=O [Compound 34, 2-(4-(1-(2,5-Difluorophenyl)propan-2-ylamino)-2-oxo-1,2-dihydropyridin-3-yl)-6-(R)-2,3-dihydroxypropyl)imidazo[4,5-f]isoindole-5,7(1H,6H)-dione]

From US9273055B2, “Tyrosine kinase inhibitors” (Chembridge Corporation, priority 2008, dated 2016)
